According to patent US9988390B2, “Pyrimidone derivatives and their use in the treatment, amelioration or prevention of a viral disease” (F. Hoffmann-La Roche AG, priority 2015, dated 2018):
pIC50: −log10 of the molar value.

test system: influenza A virus (A/WSN/33 NanoLuc reporter virus) in A549 cells; assay: microbe, parasite or virus in culture; format: cell-based; conditions: A549, 24 h, read-out: IC50 values of viral replication inhibition in a cell-based Luciferase Reporter Assay (LRA)

Structure (SMILES)	pIC50
CC(C)N1C[C@H](C(c2ccccc2)c2ccccc2)n2c(-n3cnnc3)nc(=O)c(O)c2C1=O [Ia-44, (4S)-4-Benzhydryl-9-hydroxy-2-isopropyl-6-(1,2,4-triazol-4-yl)-3,4-dihydropyrazino[1,2-c]pyrimidine-1,8-dione]	6.89
CC(C)N1C[C@H](C2c3ccccc3CCc3ccccc32)n2c(-n3ccnc3)nc(=O)c(O)c2C1=O [Ia-45, (4S)-4-(6,11-Dihydro-5H-dibenzo[2,1-b:1′,2′-e][7]annulen-11-yl)-9-hydroxy-6-imidazol-1-yl-2-isopropyl-3,4-dihydropyrazino[1,2-c]pyrimidine-1,8-dione]	7.21
CC(C)N1C[C@H](C2c3ccccc3CCc3ccccc32)n2c(-n3cnnc3)nc(=O)c(O)c2C1=O [Ia-46]	7.26
C=Cc1nc(=O)c(O)c2n1C(C1c3ccccc3CCc3ccccc31)CN(C(C)C)C2=O (stereo not drawn) [Ia-47, 4-(6,11-Dihydro-5H-dibenzo[2,1-b:1′,2′-e][7]annulen-11-yl)-9-hydroxy-2-isopropyl-6-vinyl-3,4-dihydropyrazino[1,2-c]pyrimidine-1,8-dione]	7.40
CC(C)N1CC(C2c3ccccc3CCc3ccccc32)n2c(CO)nc(=O)c(O)c2C1=O (stereo not drawn) [Ia-48, 4-(6,11-Dihydro-5H-dibenzo[2,1-b:1′,2′-e][7]annulen-11-yl)-9-hydroxy-6-(hydroxymethyl)-2-isopropyl-3,4-dihydropyrazino[1,2-c]pyrimidine-1,8-dione]	7.70
CNc1nc(=O)c(O)c2n1[C@@H](C(c1ccccc1)c1ccccc1)CN(C(C)C)C2=O [Ia-49, (4S)-4-Benzhydryl-9-hydroxy-2-isopropyl-6-(methylamino)-3,4-dihydropyrazino[1,2-c]pyrimidine-1,8-dione]	6.06
CNC(=N)Nc1nc(=O)c(O)c2n1[C@@H](C(c1ccccc1)c1ccccc1)CN(C(C)C)C2=O [Ia-50, 1-[(4S)-4-Benzhydryl-9-hydroxy-2-isopropyl-1,8-dioxo-3,4-dihydropyrazino[1,2-c]pyrimidin-6-yl]-3-methyl-guanidine]	5.97
CC(C)N1C[C@H](C(c2ccccc2)c2ccccc2)n2c(C#N)nc(=O)c(O)c2C1=O [Ia-51, (4S)-4-Benzhydryl-9-hydroxy-2-isopropyl-1,8-dioxo-3,4-dihydropyrazino[1,2-c]pyrimidine-6-carbonitrile]	6.43
CC(C)N1C[C@H](C(c2ccccc2)c2ccccc2)n2c(C(N)=O)nc(=O)c(O)c2C1=O [Ia-52, (4S)-4-Benzhydryl-9-hydroxy-2-isopropyl-1,8-dioxo-3,4-dihydropyrazino[1,2-c]pyrimidine-6-carboxamide]	7.03
CC(C)N1C[C@H](C(c2ccccc2)c2ccccc2)n2c(-c3nnn[nH]3)nc(=O)c(O)c2C1=O [Ia-53, (4S)-4-Benzhydryl-9-hydroxy-2-isopropyl-6-(1H-tetrazol-5-yl)-3,4-dihydropyrazino[1,2-c]pyrimidine-1,8-dione]	4.69
CC(C)N1C[C@H](C(c2ccccc2)c2ccccc2)n2c(CN)nc(=O)c(O)c2C1=O [Ia-54, (4S)-6-(Aminomethyl)-4-benzhydryl-9-hydroxy-2-isopropyl-3,4-dihydropyrazino[1,2-c]pyrimidine-1,8-dione]	6.03
CC(=O)NCc1nc(=O)c(O)c2n1[C@@H](C(c1ccccc1)c1ccccc1)CN(C(C)C)C2=O [Ia-55, N-[[(4S)-4-Benzhydryl-9-hydroxy-2-isopropyl-1,8-dioxo-3,4-dihydropyrazino[1,2-c]pyrimidin-6-yl]methyl]acetamide]	6.33
COC(=O)Nc1nc(=O)c(O)c2n1[C@@H](C(c1ccccc1)c1ccccc1)CN(C(C)C)C2=O [Ia-56, Methyl N-[(4S)-4-benzhydryl-9-hydroxy-2-isopropyl-1,8-dioxo-3,4-dihydropyrazino[1,2-c]pyrimidin-6-yl]carbamate]	6.70
COc1nc(=O)c(O)c2n1C(C(c1ccc(Cl)cc1)c1ccc(Cl)cc1)CN(C(C)C)C2=O (stereo not drawn) [Ia-63, 4-[Bis(4-chlorophenyl)methyl]-9-hydroxy-2-isopropyl-6-methoxy-3,4-dihydropyrazino[1,2-c]pyrimidine-1,8-dione]	6.52
CCN1CC(C(c2ccccc2)c2ccccc2)n2c(OC)nc(=O)c(O)c2C1=O (stereo not drawn) [Ia-64, 4-Benzhydryl-2-ethyl-9-hydroxy-6-methoxy-3,4-dihydropyrazino[1,2-c]pyrimidine-1,8-dione]	7.30
COc1nc(=O)c(O)c2n1[C@@H](C(c1ccccc1)c1ccccc1)CN(C)C2=O [Ia-65, (4S)-4-Benzhydryl-9-hydroxy-6-methoxy-2-methyl-3,4-dihydropyrazino[1,2-c]pyrimidine-1,8-dione]	7.59
COc1nc(=O)c(O)c2n1[C@@H](C(c1ccccc1)c1ccccc1)CN([C@H](C)C(F)(F)F)C2=O [Ia-66, (4S)-4-Benzhydryl-9-hydroxy-6-methoxy-2-[(1R)-2,2,2-trifluoro-1-methyl-ethyl]-3,4-dihydropyrazino[1,2-c]pyrimidine-1,8-dione]	7.59
COc1nc(=O)c(O)c2n1C(C(c1ccccc1)c1ccccc1Br)CN(C)C2=O (stereo not drawn) [Ia-70, 4-[(2-Bromophenyl)-phenyl-methyl]-9-hydroxy-6-methoxy-2-methyl-3,4-dihydropyrazino[1,2-c]pyrimidine-1,8-dione]	7.57
COc1nc(=O)c(O)c2n1[C@@H](C(c1ccc(F)cc1)c1ccc(F)cc1)CN(C(C)C)C2=O [Ia-71, (4S)-4-[Bis(4-fluorophenyl)methyl]-9-hydroxy-2-isopropyl-6-methoxy-3,4-dihydropyrazino[1,2-c]pyrimidine-1,8-dione]	7.33
COc1nc(=O)c(O)c2n1[C@@H]([C@H](c1ccccc1)c1ccc(Cl)cc1)CN(C(C)C)C2=O [Ia-72, (4S)-4-[(R)-(4-Chlorophenyl)-phenyl-methyl]-9-hydroxy-2-isopropyl-6-methoxy-3,4-dihydropyrazino[1,2-c]pyrimidine-1,8-dione]	7.40
COCCOc1nc(=O)c(O)c2n1[C@@H](C(c1ccccc1)c1ccccc1)CN(C)C2=O [Ia-73, (4S)-4-Benzhydryl-9-hydroxy-6-(2-methoxyethoxy)-2-methyl-3,4-dihydropyrazino[1,2-c]pyrimidine-1,8-dione]	6.92
CC(C)N1C[C@H](C(c2ccccc2)c2ccccc2)n2c(CO)nc(=O)c(O)c2C1=O [Ia-74, (4S)-4-Benzhydryl-9-hydroxy-6-(hydroxymethyl)-2-isopropyl-3,4-dihydropyrazino[1,2-c]pyrimidine-1,8-dione]	6.90
CC(C)N1CC(C2c3ccccc3CCc3ccccc32)n2c(S)nc(=O)c(O)c2C1=O (stereo not drawn) [Ia-75, 4-(6,11-Dihydro-5H-dibenzo[2,1-b:1′,2′-e][7]annulen-11-yl)-9-hydroxy-2-isopropyl-6-sulfanyl-3,4-dihydropyrazino[1,2-c]pyrimidine-1,8-dione]	7.35
CC(C)N1C[C@H](C2c3ccccc3CCc3ccccc32)n2c(S(C)(=O)=O)nc(=O)c(O)c2C1=O [Ia-76, (4S)-4-(6,11-Dihydro-5H-dibenzo[2,1-b:1′,2′-e][7]annulen-11-yl)-9-hydroxy-2-isopropyl-6-methylsulfonyl-3,4-dihydropyrazino[1,2-c]pyrimidine-1,8-dione]	7.89
